For one assay, the system named is MDA-MB-231 cells. In words: Inhibition of proliferation of triple-negative breast cancer cells, CellTiter-Glo. Type of assay: cell-based. The settings on record: Homo sapiens, 120 h; MDA-MB-231, cultured for 5 days. As for the experimental part: Specifically, the following test was performed in order to evaluate the inhibitory activity of the compound according to the present invention against the cell proliferation in triple-negative breast cancer cells (TNBCs).
Cells were seeded in 180 μL of a culture broth at a density of 2,000 to 3,000 cells/well in a white clear bottom 96-well plate (Corning) according to the growth ability of each cell, and then cultured for 24 hours under conditions of 5% CO2 and 37° C. Thereafter, the compound was prepared by diluting a 10 mM stock solution three-fold with 100% DMSO at a total of 12 concentrations so that a peak concentration of the compound was in a range of 10 mM to 0.05 μM, and the diluted compound was then diluted in each cell culture medium so that a final concentration of the compound was in a range of 100 μM to 0.5 nM. 20 μL of a diluted solution diluted with a medium was added to the cell solution in which cells were seeded in the 96-well plate on the previous day so that a final concentration of the diluted solution was in a range of 10 μM to 0.05 nM. Each of the cells was cultured for 5 days. To check cell viability, a mixture provided in a CellTiter-Glo® Luminescent Cell Viability Assay Kit (Promega) was added to each of the cultured cell media, and cultured for another 10 minutes under a condition of 37° C. Then, a degree of luminescence (fluorescence) was measured. A degree of inhibition of the cell growth according to the treatment concentration of each of the compounds was calculated based on the fluorescence of the solvent control cells which were not treated with the compound.

In a further assay the target is T1, TTK (Homo sapiens, UniProt P33981).
T1 sequence (P33981 1-857): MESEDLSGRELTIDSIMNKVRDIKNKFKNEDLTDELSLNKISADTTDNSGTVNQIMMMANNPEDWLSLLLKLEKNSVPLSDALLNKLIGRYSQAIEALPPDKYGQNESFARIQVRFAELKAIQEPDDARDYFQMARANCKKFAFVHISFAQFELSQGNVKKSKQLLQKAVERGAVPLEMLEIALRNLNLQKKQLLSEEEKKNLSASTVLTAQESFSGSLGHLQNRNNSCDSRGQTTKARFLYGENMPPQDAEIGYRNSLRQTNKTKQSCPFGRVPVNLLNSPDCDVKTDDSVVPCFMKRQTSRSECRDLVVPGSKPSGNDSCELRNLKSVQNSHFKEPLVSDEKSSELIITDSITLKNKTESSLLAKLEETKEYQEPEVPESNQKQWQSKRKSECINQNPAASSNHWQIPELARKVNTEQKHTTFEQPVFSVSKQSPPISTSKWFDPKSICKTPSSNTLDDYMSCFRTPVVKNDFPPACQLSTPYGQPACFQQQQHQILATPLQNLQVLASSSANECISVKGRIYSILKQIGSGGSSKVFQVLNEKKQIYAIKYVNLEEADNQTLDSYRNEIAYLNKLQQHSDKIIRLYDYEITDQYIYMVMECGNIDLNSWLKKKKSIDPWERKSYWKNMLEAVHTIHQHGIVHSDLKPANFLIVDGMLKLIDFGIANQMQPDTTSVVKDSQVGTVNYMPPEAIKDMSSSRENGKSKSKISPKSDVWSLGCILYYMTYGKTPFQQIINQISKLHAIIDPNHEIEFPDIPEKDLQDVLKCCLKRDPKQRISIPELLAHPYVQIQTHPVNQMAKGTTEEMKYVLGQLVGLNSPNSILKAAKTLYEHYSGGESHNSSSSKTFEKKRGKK
Put plainly: TTK enzyme activity, ADP-Glo kinase assay. Type of assay: biochemical. On the set-up: purchased SignalChem T20-10G. The settings on record: purified human TTK, ATP 10 μM, 25° C., 2 hours. The procedure:
To evaluate an inhibitory activity of the compound according to the present invention against TTK (MPS1), an experiment was performed as follows.
Each of the Example compounds was reacted with a purified human TTK (SignalChem #T20-10G) enzyme to evaluate an ability to inhibit an enzyme using a method as described below. A composition of 40 mM Tris-HCl (pH 7.4), 20 mM MgCl2, 0.5 mg/mL BSA, and 50 μM DTT was used as a reaction buffer, and all reactions of test substances were performed in the reaction buffer. […] In the test, purified ATP (10 μM) and an enzyme substrate (0.2 μg) were reacted with a human TTK (25 ng) enzyme at 25° C. for 2 hours, and the enzyme activity was determined using an in vitro ADP-Glo™ kinase assay (Promega). […] The degree of inhibition of the enzyme activity according to the treatment concentration of each of the compounds was calculated based on the fluorescence of the enzyme activity of the solvent control which was not treated with the compound.
(In general: In ADP-Glo the light output rises with the ADP produced.)

The molecule `CNc1nc(Nc2ccc(N3CCCC3=O)cc2OC)nc2[nH]cc(C(F)(F)F)c12` [Example 51, l-(3-methoxy-4-((4-(methylamino)-5-(trifluoromethyl)-7H-pyrrolo[2,3-d]pyrimidin-2-yl)amino)phenyl) pyrrolidin-2-one] gave a GI50 in the assay with MDA-MB-231 cells greater than 1000 nM. On TTK, the IC50 was in the range of 50 to 200 nM.

On to `COc1cc(N2CCCC2=O)ccc1Nc1nc(NCC2CCC2)c2c(C#N)c[nH]c2n1` [Example 70, 4-((cyclobutylmethyl)amino)-2-((2-methoxy-4-(2-oxopyrrolidin-1-yl)phenyl)amino)-7H-pyrrolo[2,3-d] pyrimidine-5-carbonitrile], for which, in the assay on MDA-MB-231 cells, the GI50 was greater than 1000 nM. This molecule also yielded an IC50 at TTK of less than 50 nM.

`COc1cc(-c2nnc3n2CCC3)ccc1Nc1nc(NC2CCCCC2)c2c(C#N)c[nH]c2n1` [Example 31, 4-(cyclohexylamino)-2-((4-(6,7-dihydro-5H-pyrrolo[2,1-c] [1,2,4]triazol-3-yl)-2-methoxyphenyl)amino)-7H-pyrrolo[2,3-d] pyrimidine-5-carbonitrile]: in the assay on MDA-MB-231 cells, the GI50 was less than 100 nM. The molecule also came in with an IC50 against TTK of less than 50 nM.

With `CC[C@H](C)Nc1nc(Nc2ccc(-c3ccnn3C)cc2OC)nc2[nH]cc(C#N)c12` [Example 1, (S)-4-(sec-butylamino)-2-((2-methoxy-4-(1-methyl-1H-pyrazol-5-yl)phenyl)amino)-7H-pyrrolo[2,3-d] pyrimidine-5-carbonitrile 2,2,2-trifluoroacetate], the GI50 in the assay with MDA-MB-231 cells was less than 100 nM. Further, the IC50 on TTK is less than 50 nM.

As for `COc1cc(-c2ccc(CN3CCN(C(C)=O)CC3)cc2)ccc1Nc1nc(NC2CCCC2)c2c(C#N)c[nH]c2n1` [Example 41, 2-((4′-((4-acetylpiperazin-1-yl)methyl)-3-methoxy-[1,1′-biphenyl]-4-yl)amino)-4-(cyclopentylamino)-7H-pyrrolo[2,3-d] pyrimidine-5-carbonitrile], the GI50 with MDA-MB-231 cells was 100 to 1000 nM. At TTK, this molecule had an IC50 of 50 to 200 nM.

Take `N#Cc1c[nH]c2nc(Nc3ccc(-c4ccc(CN5CCN(C6CC6)CC5)cc4)cc3)nc(NC3CCCCC3)c12` [Example 22, 4-(cyclohexylamino)-2-((4′-((4-cyclopropylpiperazin-l-yl)methyl)-[1,1′-biphenyl]-4-yl)amino)-7H-pyrrolo[2,3-d] pyrimidine-5-carbonitrile]: the GI50 in the assay on MDA-MB-231 cells was in the range of 100 to 1000 nM. The same molecule showed an IC50 on TTK of less than 50 nM.

Regarding `COc1cc(-n2cc(C)nc2C)ccc1Nc1nc(NC2CCCCC2)c2c(C#N)c[nH]c2n1` [Example 34, 4-(cyclohexylamino)-2-((4-(2,4-dimethyl-1H-imidazol-1-yl)-2-methoxyphenyl)amino)-7H-pyrrolo[2,3-d] pyrimidine-5-carbonitrile], in the assay on MDA-MB-231 cells, the GI50 is less than 100 nM.

As to `CCOc1cc(-c2ccnn2C)ccc1Nc1nc(NC2CCCCC2)c2c(C#N)c[nH]c2n1` [Example 36, 4-(cyclohexylamino)-2-((2-ethoxy-4-(1-methyl-1H-pyrazol-5-yl)phenyl)amino)-7H-pyrrolo[2,3-d] pyrimidine-5-carbonitrile], the GI50 in the assay on MDA-MB-231 cells was less than 100 nM.

The molecule `COc1cc(-c2ccnn2C)ccc1Nc1nc(OC2CCCCC2)c2c(C#N)c[nH]c2n1` [Example 45, 4-(cyclohexyloxy)-2-((2-methoxy-4-(1-methyl-1H-pyrazol-5-yl)phenyl)amino)-7H-pyrrolo[2,3-d] pyrimidine-5-carbonitrile] had a GI50 in the assay with MDA-MB-231 cells of less than 100 nM.

`COc1cc(N2CCCC2=O)ccc1Nc1nc(NC2CCOCC2)c2c(C#N)c[nH]c2n1` [Example 74, 2-((2-methoxy-4-(2-oxopyrrolidin-1-yl)phenyl)amino)-4-((tetrahydro-2H-pyran-4-yl)amino)-7H-pyrrolo[2,3-d] pyrimidine-5-carbonitrile] gave a GI50 in the assay on MDA-MB-231 cells greater than 1000 nM.

For `COc1cc(-c2ccnn2C)ccc1Nc1nc(NCC2CCCC2)c2c(C#N)c[nH]c2n1` [Example 8, 4-((cyclopentylmethyl)amino)-2-((2-methoxy-4-(1-methyl-1H-pyrazol-5-yl)phenyl)amino)-7H-pyrrolo[2,3-d] pyrimidine-5-carbonitrile], the IC50 on TTK fell in the range of 50 to 200 nM.

For `COc1cc(N2CCOCC2=O)ccc1Nc1nc(NC2CCCCC2)c2c(C#N)c[nH]c2n1` [Example 81, 4-(cyclohexylamino)-2-((2-methoxy-4-(3-oxomorpholino)phenyl)amino)-7H-pyrrolo[2,3-d] pyrimidine-5-carbonitrile], the GI50 with MDA-MB-231 cells is less than 100 nM.

Molecule `COc1cc(-c2ccnn2C)ccc1Nc1nc(NC2CCCCC2)c2cc[nH]c2n1` [Example 4, N^4-cyclohexyl-N^2-(2-methoxy-4-(1-methyl-1H-pyrazol-5-yl)phenyl)-7H-pyrrolo[2,3-d] pyrimidine-2,4-diamine] displayed a GI50 in the assay with MDA-MB-231 cells of 100 to 1000 nM.

As to `CCOc1cc(N2CCCC2=O)ccc1Nc1nc(NC2CCCCC2)c2c(C#N)c[nH]c2n1` [Example 78, 4-(cyclohexylamino)-2-((2-ethoxy-4-(2-oxopyrrolidin-1-yl)phenyl)amino)-7H-pyrrolo[2,3-d] pyrimidine-5-carbonitrile], the GI50 in the assay with MDA-MB-231 cells lay in the range of 100 to 1000 nM.

`COc1cc(N2CCCC2=O)ccc1Nc1nc(NCC(C)(C)C)c2c(C#N)c[nH]c2n1` [Example 77, 2-((2-methoxy-4-(2-oxopyrrolidin-1-yl)phenyl)amino)-4-(neopentylamino)-7H-pyrrolo[2,3-d] pyrimidine-5-carbonitrile]: the GI50 in the assay on MDA-MB-231 cells lay in the range of 100 to 1000 nM.

`COc1cc(-c2ccnn2C)ccc1Nc1nc(NC2CCCCC2)c2c(C(F)(F)F)c[nH]c2n1` [Example 6, N^4-cyclohexyl-N^2-(2-methoxy-4-(1-methyl-1H-pyrazol-5-yl)phenyl)-5-(trifluoromethy1)-7H-pyrrolo[2,3-d] pyrimidine-2,4-diamine] came in with a GI50 in the assay on MDA-MB-231 cells greater than 1000 nM.

On to `COc1cc(-c2ccnn2C)ccc1Nc1nc(NC2CCOCC2)c2c(C#N)c[nH]c2n1` [Example 15, 2-((2-methoxy-4-(1-methyl-1H-pyrazol-5-yl)phenyl)amino)-4-((tetrahydro-2H-pyran-4-yl)amino)-7H-pyrrolo[2,3-d] pyrimidine-5-carbonitrile], for which, at TTK, the IC50 was less than 50 nM.

The molecule `Cn1nccc1-c1ccc(Nc2nc(NC3CCCCC3)c3c(C#N)c[nH]c3n2)cc1` [Example 37, 4-(cyclohexylamino)-2-((4-(1-methyl-1H-pyrazol-5-yl)phenyl)amino)-7H-pyrrolo[2,3-d] pyrimidine-5-carbonitrile] came in with a GI50 in the assay on MDA-MB-231 cells of less than 100 nM.

With `COc1cc(-c2ccnn2C)ccc1Nc1nc(NC2CCCCC2)c2c(Cl)c[nH]c2n1` [Example 5, 5-chloro-N^4-cyclohexyl-N^2-(2-methoxy-4-(1-methyl-1H-pyrazol-5-yl)phenyl)-7H-pyrrolo[2,3-d] pyrimidine-2,4-diamine], the GI50 in the assay on MDA-MB-231 cells was greater than 1000 nM.

For the molecule `N#Cc1c[nH]c2nc(Nc3ccc(N4CCCC4=O)cc3)nc(NC3CCCCC3)c12` [Example 80, 4-(cyclohexylamino)-2-((4-(2-oxopyrrolidin-1-yl)phenyl)amino)-7H-pyrrolo[2,3-d] pyrimidine-5-carbonitrile], the GI50 in the assay on MDA-MB-231 cells is less than 100 nM.

The molecule `COCCNc1nc(Nc2ccc(-c3ccnn3C)cc2OC)nc2[nH]cc(C#N)c12` [Example 13] yielded an IC50 against TTK of less than 50 nM.

As a reminder, the GI50 is the concentration at which growth is held to half of that of the control. A higher GI50 goes with lower sensitivity of the cells. One may read the IC50 as the concentration that gives 50% inhibition. Read a low IC50 as greater potency in that assay.

The values are drawn from patent US20230183243A1, “HETEROARYL DERIVATIVES AND PHARMACEUTICAL COMPOSITION COMPRISING SAME AS ACTIVE INGREDIENT” (VORONOI INC., priority 2019, published 2023).
